These molecules were tested on rabbit skeletal myofibrils (fast skeletal myofibrils) (assay: Activation of fast skeletal myofibrils (PUMA assay, PK/LDH-coupled ATPase at pCa25)). Conditions: AC1.4 determined according to the procedure of Example 39; reported as class symbols.
Format: biochemical
How it was run: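 ATPase activity of Triton-washed rabbit skeletal myofibrils, roughly 90% fast fibres, tracked by NADH loss at 340 nm through a PK/LDH-coupled ADP-regenerating system. Calcium set to 25% of maximal activity (pCa25), in PIPES 12 mM pH 6.8 with 2 mM MgCl2 and 1 mM DTT; AC1.4 reported.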
With `CC(C)(CNc1ccc(-c2ccc3[nH]c(=O)c(=O)[nH]c3c2)nn1)c1ccc(F)cc1` [6-(6-{[2-(4-fluorophenyl)-2-methylpropyl]amino}pyridazin-3-yl)-1,4-dihydroquinoxaline-2,3-dione] the “Mean AC1.4” value was “A (A=<1 uM)”.
In the case of `COc1cccnc1C1(CNc2ccc(-c3cc(C(N)=O)ccc3F)nn2)CCC1`, the “Mean AC1.4” value is reported as “B (B=1-10 uM)”.
`CC(C)(CNc1ccc(-c2ccc(C#N)cc2)nn1)c1ccc(F)cc1` [4-(6-{[2-(4-fluorophenyl)-2-methylpropyl]amino}pyridazin-3-yl)benzenecarbonitrile] was tested, and the “Mean AC1.4” value was “B (B=1-10 uM)”.
`CNc1n[nH]c2ccc(-c3ccc(NCC4(c5ncccc5F)CCC4)nn3)cc12` [{[(3-fluoro(2-pyridyl))cyclobutyl]methyl}{6-[3-(methylamino)(1H-indazol-5-yl)]pyridazin-3-yl}amine] was tested, and the “Mean AC1.4” value was “A (A=<1 uM)”.
For `COc1cccnc1C1(CNc2ccc(-c3ccc4[nH]ncc4c3)nn2)CCC1` [(6-(1H-indazol-5-yl)pyridazin-3-yl){[(3-methoxy(2-pyridyl))cyclobutyl]methyl}amine], the “Mean AC1.4” value was “B (B=1-10 uM)”.
With `CC(C)(CNc1ccc(C2=CCN(S(C)(=O)=O)CC2)nn1)c1ccc(F)cc1` [4-(6-{[2-(4-fluorophenyl)-2-methylpropyl]amino}pyridazin-3-yl)-1-(methylsulfonyl)-1,2,5,6-tetrahydropyridine] the “Mean AC1.4” value was “B (B=1-10 uM)”.
With `CC(C)(CNc1ccc(-c2cccc(C(=O)NCCNC(=O)c3cccc(-c4ccc(NCC(C)(C)c5ccc(F)cc5)nn4)c3)c2)nn1)c1ccc(F)cc1` [[3-(6-{[2-(4-fluorophenyl)-2-methylpropyl]amino}pyridazin-3-yl)phenyl]-N-(2-{[3-(6-{[2-(4-fluorophenyl)-2-methylpropyl]amino}pyridazin-3-yl)phenyl]carbonylamino}eth-yl)carboxamide] the “Mean AC1.4” value was “B (B=1-10 uM)”.
In the case of `CC(C)(CNc1ccc(-c2cccc3[nH]ncc23)nn1)c1ccc(F)cc1` [(6-(1H-indazol-4-yl)pyridazin-3-yl)[2-(4-fluorophenyl)-2-methylpropyl]amine], the “Mean AC1.4” value is reported as “A (A=<1 uM)”.
With `CC(C)(CNc1ccc(-c2cccc(C(=O)NCCO)c2)nn1)c1ccc(F)cc1` [[3-(6-{[2-(4-fluorophenyl)-2-methylpropyl]amino}pyridazin-3-yl)phenyl]-N-(2-hydroxyethyl)carboxamide] the “Mean AC1.4” value was “B (B=1-10 uM)”.
With `CC(Nc1ccc(-c2cccc(C(N)=O)c2)nn1)c1ccccc1` (stereo not shown) the “Mean AC1.4” value was “D (D=>20 uM)”.
`N=C(N)Nc1n[nH]c2ccc(-c3ccc(NCC4(c5ncccc5F)CCC4)nn3)cc12` was tested, and the “Mean AC1.4” value was “B (B=1-10 uM)”.
In the case of `CCc1ccc(NCC(C)(C)c2ccc(F)cc2)nn1` [(6-ethylpyridazin-3-yl)[2-(4-fluorophenyl)-2-methylpropyl]amine], the “Mean AC1.4” value is reported as “C (C=10-20 uM)”.
`CC(C)(CNc1ccc(-c2ccc3[nH]nc(NCCN)c3c2)nn1)c1ccc(F)cc1` [(6-{3-[(2-aminoethyl)amino](1H-indazol-5-yl)}pyridazin-3-yl)[2-(4-fluorophenyl)-2-methylpropyl]amine] was tested, and the “Mean AC1.4” value was “A (A=<1 uM)”.
With `CC(CNc1ccc(-c2ccc3[nH]nc(N)c3c2)nn1)N1CCCCC1` (stereo not shown) [[6-(3-amino(1H-indazol-5-yl))pyridazin-3-yl](2-piperidylpropyl)amine] the “Mean AC1.4” value was “D (D=>20 uM)”.
`CN(C)Cc1cccc(C(C)(C)CNc2ccc(-c3ccc4[nH]nc(N)c4c3)nn2)c1` was tested, and the “Mean AC1.4” value was “D (D=>20 uM)”.
`CC(C)(CNc1ccc(-c2cccc(C(N)=O)c2)nn1)c1ccc(F)cn1` [3-(6-{[2-(5-fluoro(2-pyridyl))-2-methylpropyl]amino}pyridazin-3-yl)benzamide] was tested, and the “Mean AC1.4” value was “C (C=10-20 uM)”.
In the case of `CC(C)(CNc1ccc(-c2cnc(=O)[nH]c2)nn1)c1ccc(F)cc1`, the “Mean AC1.4” value is reported as “D (D=>20 uM)”.
`COC(=O)NCc1ccc(-c2ccc(NCC(C)(C)c3ccc(F)cc3)nn2)cn1` was tested, and the “Mean AC1.4” value was “C (C=10-20 uM)”.
`c1ccc(C2(CNc3ccc(-c4ccc5cn[nH]c5c4)nn3)CCC2)nc1` [(6-(1H-indazol-6-yl)pyridazin-3-yl)[(2-pyridylcyclobutyl)methyl]amine] was tested, and the “Mean AC1.4” value was “A (A=<1 uM)”.

Same assay, conditions: median AC1.4 class, procedure of Example 39
`O=C(CNC(=O)c1ccc(NCC2(c3ncccc3F)CCC2)nn1)OCc1ccccc1` [phenylmethyl 2-{[6-({[(3-fluoro-2-pyridyl)cyclobutyl]methyl}ami-no)pyridazin-3-yl]carbonylamino}acetate] was tested, and the “Mean AC1.4” value was “D (D=>20 uM)”.
For `O=C(c1cnc(-c2ccc(NCC3(c4ncccc4F)CCC3)nn2)s1)N1CCOCC1` [2-[6-({[(3-fluoro(2-pyridyl))cyclobutyl]methyl}ami-no)pyridazin-3-yl](1,3-thiazol-5-yl) morpholin-4-yl ketone], the “Mean AC1.4” value was “C (C=10-20 uM)”.
For `CC(C)(C)OC(=O)N1CCN(c2ncc(-c3ccc(NCC4(c5ncccc5F)CCC4)nn3)cn2)CC1`, the “Mean AC1.4” value was “D (D=>20 uM)”.
For `NC(=O)c1cnn(Cc2ccc(NC3(c4ncccc4F)CCC3)nn2)c1`, the “Mean AC1.4” value was “D (D=>20 uM)”.
With `COC(=O)c1c[nH]c(-c2ccc(NCC3(c4ncccc4F)CCC3)nn2)n1` [methyl 2-[6-({[(3-fluoro-2-pyridyl)cyclobutyl]methyl}ami-no)pyridazin-3-yl]imidazole-4-carboxylate] the “Mean AC1.4” value was “D (D=>20 uM)”.
`NC(CNC(=O)c1cnc(-c2ccc(NCC3(c4ncccc4F)CCC3)nn2)s1)C(F)(F)F` (stereo not shown) [N-(2-amino-3,3,3-trifluoropropyl){2-[6-({[(3-fluoro(2-pyridyl))cyclobutyl]methyl}ami-no)pyridazin-3-yl](1,3-thiazol-5-yl)}carboxamide] was tested, and the “Mean AC1.4” value was “B (B=1-10 uM)”.
`CC(C)(Nc1ccc(-c2ncc(C(N)=O)s2)nn1)c1cccc(OC(F)F)n1` [2-[6-({1-[6-(difluoromethoxy)(2-pyridyl)]-isopropyl}amino)pyridazin-3-yl]-1,3-thiazole-5-carboxamide] was tested, and the “Mean AC1.4” value was “B (B=1-10 uM)”.
With `CCOC(=O)c1sc(-c2ccc(NCC3(c4ncccc4F)CCC3)nn2)nc1O` [ethyl 2-[6-({[(3-fluoro(2-pyridyl))cyclobutyl]methyl}ami-no)pyridazin-3-yl]-4-hydroxy-1,3-thiazole-5-carboxylate] the “Mean AC1.4” value was “D (D=>20 uM)”.
With `N#Cc1sc(-c2ccc(NCC3(c4ncccc4F)CCC3)nn2)nc1O` [2-[6-({[(3-fluoro(2-pyridyl))cyclobutyl]methyl}ami-no)pyridazin-3-yl]-4-hydroxy-1,3-thiazole-5-carbonitrile] the “Mean AC1.4” value was “D (D=>20 uM)”.
`COC(=O)c1cn(C)c(-c2ccc(NCC3(c4ncccc4F)CCC3)nn2)n1` [methyl 2-[6-({[(3-fluoro(2-pyridyl))cyclobutyl]methyl}ami-no)pyridazin-3-yl]-1-methylimidazole-4-carboxylate] was tested, and the “Mean AC1.4” value was “D (D=>20 uM)”.
For `NC(=O)NCc1cnc(-c2ccc(NCC3(c4ncccc4F)CCC3)nn2)s1` [amino-N-({2-[6-({[(3-fluoro(2-pyridyl))cyclobutyl]methyl}ami-no)pyridazin-3-yl](1,3-thiazol-5-yl)}methyl)amide], the “Mean AC1.4” value was “A (A=<1 uM)”.
With `Oc1ccc(-c2ccc(NCC3(c4ncccc4F)CCC3)nn2)nc1` the “Mean AC1.4” value was “A (A=<1 uM)”.
For `CC(C)(Nc1ccc(-c2ccccc2)nn1)c1ccccc1` [(1-methyl-1-phenylethyl)(6-phenylpyridazin-3-yl)amine], the “Mean AC1.4” value was “B (B=1-10 uM)”.

Same assay, conditions: median AC1.4 reported as class; procedure of Example 39
With `Cc1cc(NCC2(c3ncccc3F)CCC2)nnc1-c1ncc(CC(N)=O)s1` [2-{2-[6-({[(3-fluoro(2-pyridyl))cyclobutyl]methyl}amino)-4-methylpyridazin-3-yl]-1,3-thiazol-5-yl}acetamide] the “Mean AC1.4” value was “B (B=1-10 uM)”.
In the case of `CNC(=O)c1cc(C)cc(-c2ccc(NC[C@]3(c4ncccc4F)C[C@H](F)C3)nn2)c1` [{3-[6-({[3-fluoro-1-(3-fluoro(2-pyridyl))cyclobutyl]methyl}ami-no)pyridazin-3-yl]-5-methylphenyl}-N-methylcarboxamide], the “Mean AC1.4” value is reported as “B (B=1-10 uM)”.
For `O=C(O)c1cc(-c2ccc(NCC3(c4ncccc4F)CCC3)nn2)c[nH]c1=O` [5-[6-({[(3-fluoro(2-pyridyl))cyclobutyl]methyl}ami-no)pyridazin-3-yl]-2-oxohydropyridine-3-carboxylic acid], the “Mean AC1.4” value was “D (D=>20 uM)”.
With `O=C(N[C@@H]1CCNC1=O)c1ccc(NCC2(c3ncccc3F)CCC2)nn1` [N-((3R)-2-oxopyrrolidin-3-yl)[6-({[(3-fluoro(2-pyridyl))cyclobutyl]methyl}ami-no)pyridazin-3-yl]carboxamide] the “Mean AC1.4” value was “D (D=>20 uM)”.
For `CNC(=O)c1cccc(-c2ccc(NC[C@]3(c4ncccc4F)C[C@H](F)C3)nn2)c1O` [{3-[6-({[3-fluoro-1-(3-fluoro(2-pyridyl))cyclobutyl]methyl}ami-no)pyridazin-3-yl]-2-hydroxyphenyl}-N-methylcarboxamide], the “Mean AC1.4” value was “A (A=<1 uM)”.
For `O=C(NCc1ccncc1)c1ccc(NCC2(c3ncccc3F)CCC2)nn1` [[6-({[(3-fluoro(2-pyridyl))cyclobutyl]methyl}ami-no)pyridazin-3-yl]-N-(4-pyridylmethyl)carboxamide], the “Mean AC1.4” value was “D (D=>20 uM)”.
`CNC(C)(C)C(=O)NCc1cnc(-c2ccc(NCC3(c4ncccc4F)CCC3)nn2)s1` [N-({2-[6-({[(3-fluoro(2-pyridyl))cyclobutyl]methyl}ami-no)pyridazin-3-yl](1,3-thiazol-5-yl)}methyl)-2-methyl-2-(methylamino)propanamide] was tested, and the “Mean AC1.4” value was “A (A=<1 uM)”.
In the case of `Fc1cccnc1C1(CNc2ccc(-c3nc4c(s3)CNCC4)nn2)CCC1` [{[(3-fluoro(2-pyridyl))cyclobutyl]methyl}(6-(4,5,6,7-tetrahydro-1,3-thiazolo[5,4-c]pyridin-2-yl)pyridazin-3-yl)amine], the “Mean AC1.4” value is reported as “D (D=>20 uM)”.

Source: US10076519B2 (CYTOKINETICS, INC., priority 2010, dated 2018)
